# Source: ChEMBL document CHEMBL3352151, “In vitro and in vivo antibacterial evaluation and mechanistic study of ornithine based small cationic lipopeptides against antibiotic resistant clinical isolates” (Eur J Med Chem, 2014)
# The source made the active and inactive calls. The calls are words filed in the database; no cut-off is given here.
# Experiments:
# Staphylococcus aureus [1] = assay: Antibacterial activity against Staphylococcus aureus PGI/DML03149 infected in Swiss albino mouse assessed as log reduction at 3 mg/kg administered twice at 1 hr and 5 hrs post infection relative to control; type: functional
# Mus musculus [2] = assay: Toxicity in albino mouse assessed as mortality latency at 60 mg/kg, iv; type: organism-based; design: dose 60 mg/kg, route intravenous; details: in vivo
# Escherichia coli [3] = assay: Bactericidal activity against clinical isolates of Escherichia coli PGI/DML02292 assessed as surface blebs at 4 times MIC after 30 mins by […] microscopy relative to control; type: functional, organism-based
# Mus musculus [4] = assay: Toxicity in albino mouse assessed as syncope at 90 to 150 mg/kg, iv measured for 14 days; type: organism-based; design: dose 90-150 mg/kg, route intravenous; details: in vivo, 336 h
# Mus musculus [5] = assay: Toxicity in albino mouse assessed as mortality latency at 75 mg/kg, iv; type: organism-based; design: dose 75 mg/kg, route intravenous; details: in vivo
# Enterococcus faecalis = assay: Antibacterial activity against clinical isolates of gentamicin-resistant Enterococcus faecalis GMCH/R-Gen011 after overnight incubation by microdilution broth assay; type: functional
# Escherichia coli [6] = assay: Antibacterial activity against clinical isolates of Escherichia coli PGI/DML02250 after overnight incubation by microdilution broth assay; type: functional
# Acinetobacter baumannii [7] = assay: Antibacterial activity against clinical isolates of imipenem-resistant Acinetobacter baumannii GMCH/R-Imi003 after overnight incubation by microdilution broth assay; type: functional
# Escherichia coli [8] = assay: Induction of membrane damage in Escherichia coli PGI/DML02292 at 6 ug/ml after 30 mins by propidium iodide staining-based flow cytometry relative to control; type: functional
# [9] = Toxicity in albino mouse assessed as mortality at 5 mg/kg, iv; type: organism-based; design: dose 5 mg/kg, route intravenous; details: in vivo
# [10] = Toxicity in albino mouse assessed as mortality at 90 mg/kg, iv; type: organism-based; design: dose 90 mg/kg, route intravenous; details: in vivo
# Mus musculus [11] = assay: Toxicity in albino mouse assessed as mortality latency at 150 mg/kg, iv; type: organism-based; design: dose 150 mg/kg, route intravenous; details: in vivo
# Staphylococcus aureus [12] = assay: Antibacterial activity against Staphylococcus aureus PGI/DML03149 infected in Swiss albino mouse assessed as log reduction at 5 mg/kg administered twice at 1 hr and 5 hrs post infection relative to control; type: functional
# Klebsiella pneumoniae = assay: Antibacterial activity against clinical isolates of kanamycin-resistant Klebsiella pneumoniae GMCH/R-Kan006 after overnight incubation by microdilution broth assay; type: functional
# Acinetobacter baumannii [13] = assay: Antibacterial activity against clinical isolates of Acinetobacter baumannii GMCH/B0083 after overnight incubation by microdilution broth assay; type: functional
# Mus musculus [14] = assay: Toxicity in albino mouse assessed as hypoactivity at 45 to 75 mg/kg, iv measured for 14 days; type: organism-based; design: dose 45-75 mg/kg, route intravenous; details: in vivo, 336 h
# Haemophilus influenzae = assay: Antibacterial activity against clinical isolates of Haemophilus influenzae PGI/DML01751 after overnight incubation by microdilution broth assay; type: functional
# Plasma = assay: Drug degradation in human plasma at 1 ug/ml after 24 hrs by RP-HPLC analysis; type: ADME, cell-free
smiles,measurement,setting,value
CCCCCCCCCCCCCC(=O)NC(CCCN)C(=O)NC(CCCN)C(=O)NC(CCCN)C(N)=O (stereo not drawn),FC,Staphylococcus aureus [1],2.8
same,Time,Mus musculus [2],> 120 h
same,Activity,Escherichia coli [3],Active
same,Activity,Mus musculus [4],Toxic
same,Time,Mus musculus [5],> 120 h
same,MIC,Enterococcus faecalis,4.5 µg/mL
same,MIC,Escherichia coli [6],2 µg/mL
same,MIC,Acinetobacter baumannii [7],3.25 µg/mL
same,Activity,Escherichia coli [8],54%
same,mortality,[9],0%
same,mortality,[10],60%
same,Time,Mus musculus [11],> 48 h
same,FC,Staphylococcus aureus [12],4.15
same,MIC,Klebsiella pneumoniae,5.5 µg/mL
same,MIC,Acinetobacter baumannii [13],2.5 µg/mL
same,Activity,Mus musculus [14],Toxic
same,MIC,Haemophilus influenzae,4.5 µg/mL
same,Stability,Plasma,Stable
